Columns and labels:
[1] = Sweetness potency at 4% sucrose solution
[2] = Sweetness potency at 2% sucrose solution
[3] = Sweetness potency at 1 mg/mL sucrose solution; weakly bitter

Row | Compound | Sweetness potency [2] | further results
1 | N/C(=N\C(c1ccccc1)c1ccccc1)NCC(=O)O | – | Sweetness potency [1]: 400
2 | N#Cc1ccc(N/C(=N\CC(=O)O)NCC2CCCCC2)cc1 | 35000 | –
3 | N#Cc1ccc(N/C(=N\CC(=O)O)NC(c2ccccc2)c2ccccc2)cc1 | 200000 | –
4 | N/C(=N\CC(=O)O)NCC1CCCCC1 | – | Sweetness potency [3]: weakly bitter
5 | C[C@H](/N=C(\N)NCC(=O)O)c1ccccc1 | – | Sweetness potency [3]: weakly bitter
6 | N/C(=N\C1CCCCCCC1)NCC(=O)O | 200 | –
7 | N#Cc1ccc(N/C(=N/CC(=O)O)NC2CCCCCCC2)cc1 | 170000 | –
8 | C[C@H](/N=C(/NCC(=O)O)Nc1ccc(C#N)cc1)c1ccccc1 | 28000 | –
